Numbers after ± are expanded uncertainties.
Settings: Liquid; for mass density: 298.15 K, 101.33 kPa

mass density	vapor or sublimation pressure (353.2 K)	vapor or sublimation pressure (375.52 K)	vapor or sublimation pressure (322.4 K)	vapor or sublimation pressure (353.85 K)	Compound
873.55 ± 0.22 kg/m3	101.3 ± 4.1 kPa	–	–	–	c1ccccc1 [benzene]
1027.85 ± 0.23 kg/m3	–	101.3 ± 4.1 kPa	–	–	C1COCCO1 [1,4-dioxane]
739.74 ± 0.79 kg/m3	–	–	101.3 ± 4.1 kPa	–	C1CCCC1 [cyclopentane]
773.65 ± 0.32 kg/m3	–	–	–	101.3 ± 4.1 kPa	C1CCCCC1 [cyclohexane]

From the NIST ThermoML archive (doi:10.1016/j.fluid.2005.09.010)
